Measurements from patent publication US12252524B2, “GIP/GLP1 co-agonist compounds” (Eli Lilly and Company, priority 2018, dated 2025).
Numbered stars: 1 amine (or outer) side, 2 acyl side, 3 side chain; on linkers, the order of the positions; unused ones are H or OH. Square brackets hold non-standard residues; d marks the D form. Side chains are listed from the residue outwards. Peptide text beside a SMILES is read from it. * marks the point of attachment. C20 diacid = O=C(O)CCCCCCCCCCCCCCCCCCC(=O)*; γGlu = O=C(O)[C@H](CCC(=O)[*:2])N[*:1]; αMeL = CC(C)C[C@](C)(N)C(=O)O; AEEA = NCCOCCOCC(=O)O; Aib = CC(C)(N)C(=O)O

Key:
human Gcg receptor = molecular target: T1, human Gcg receptor (Homo sapiens, UniProt P47871); test: [125I]-Glucagon binding (SPA), human Gcg receptor; conditions: read-out: hGLcgR Ki, nM (SEM, n)
T1 construct: expressed in transfected cells; crude membranes
T1 sequence (P47871 26-477): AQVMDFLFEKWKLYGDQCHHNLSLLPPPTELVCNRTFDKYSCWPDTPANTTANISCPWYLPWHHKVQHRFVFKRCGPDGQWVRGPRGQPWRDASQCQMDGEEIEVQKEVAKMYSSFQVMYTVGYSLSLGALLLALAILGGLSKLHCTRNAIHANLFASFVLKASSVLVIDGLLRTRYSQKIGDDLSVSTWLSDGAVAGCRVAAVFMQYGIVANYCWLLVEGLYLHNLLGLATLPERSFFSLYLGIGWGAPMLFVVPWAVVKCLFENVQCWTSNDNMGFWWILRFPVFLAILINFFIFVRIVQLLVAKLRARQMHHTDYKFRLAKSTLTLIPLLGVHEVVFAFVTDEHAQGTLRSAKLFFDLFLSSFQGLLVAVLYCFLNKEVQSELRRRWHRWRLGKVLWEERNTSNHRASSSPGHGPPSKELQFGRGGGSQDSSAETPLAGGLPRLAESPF
Outline: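 Crude membranes from cells expressing the receptor, prepared by hypotonic lysis in 50 mM Tris HCl pH 7.5 with protease inhibitors, homogenization and differential centrifugation, were used in a WGA-bead SPA. Binding buffer: 25 mM HEPES pH 7.4, 2.5 mM CaCl2, 1 mM MgCl2, bacitracin, Tween-20.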

human GIP receptor = molecular target: T2, human GIP receptor (Homo sapiens, UniProt P48546); test: [125I]-GIP binding (SPA), human GIP receptor; conditions: read-out: hGIPR Ki, nM (SEM, n)
T2 construct: expressed in transfected cells; crude membranes
T2 sequence (P48546 22-466): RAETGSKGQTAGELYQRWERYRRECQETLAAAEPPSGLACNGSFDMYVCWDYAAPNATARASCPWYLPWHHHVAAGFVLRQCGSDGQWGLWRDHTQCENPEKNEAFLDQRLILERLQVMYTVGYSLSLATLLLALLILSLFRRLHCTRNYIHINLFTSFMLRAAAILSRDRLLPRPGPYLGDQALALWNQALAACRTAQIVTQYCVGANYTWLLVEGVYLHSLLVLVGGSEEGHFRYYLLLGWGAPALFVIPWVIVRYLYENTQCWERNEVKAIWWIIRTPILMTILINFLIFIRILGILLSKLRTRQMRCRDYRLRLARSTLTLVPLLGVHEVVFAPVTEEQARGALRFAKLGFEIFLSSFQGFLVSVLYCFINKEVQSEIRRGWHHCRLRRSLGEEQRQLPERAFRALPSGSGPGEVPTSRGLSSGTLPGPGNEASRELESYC

[1] = molecular target: human GLP-1 receptor (GLP-1R) (Homo sapiens, UniProt P43220); test: cAMP pharmacological functional assay in presence of casein, hGLP-1R; type: cell-based; conditions: HEK293 cells expressing hGLP-1R, 0.1% Casein, geometric mean; read-out: hGLP1R cAMP Rel EC50 nM (SEM, n)
Chain of human GLP-1 receptor (GLP-1R) (P43220 24-463): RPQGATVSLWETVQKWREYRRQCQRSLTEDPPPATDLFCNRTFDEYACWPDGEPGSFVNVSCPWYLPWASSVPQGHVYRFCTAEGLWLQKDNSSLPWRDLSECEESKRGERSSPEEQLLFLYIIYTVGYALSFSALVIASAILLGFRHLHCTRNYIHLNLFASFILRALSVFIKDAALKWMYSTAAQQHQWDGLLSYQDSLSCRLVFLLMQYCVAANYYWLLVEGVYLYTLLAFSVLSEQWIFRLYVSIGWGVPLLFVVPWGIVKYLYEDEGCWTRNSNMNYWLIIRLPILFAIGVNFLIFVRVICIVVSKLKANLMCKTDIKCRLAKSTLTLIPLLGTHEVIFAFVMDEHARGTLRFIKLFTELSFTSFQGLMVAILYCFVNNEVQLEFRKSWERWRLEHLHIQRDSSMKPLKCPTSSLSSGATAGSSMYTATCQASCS

[2] = molecular target: T3, gastric inhibitory peptide receptor (GIPR) (Homo sapiens, UniProt P48546); test: cAMP pharmacological functional assay in presence of casein, hGIPR; type: cell-based; conditions: HEK293 cells expressing hGIPR, 0.1% Casein, geometric mean; read-out: hGIPR cAMP Rel EC50 nM (SEM, n)
T3 sequence (P48546 22-466): T2 sequence (P48546 22-466)

human GLP-1R = human GLP-1R (Homo sapiens, UniProt P43220); test: [125I]-GLP-1 binding (SPA), human GLP-1 receptor; set-up: expressed in transfected cells; crude membranes; conditions: read-out: hGLP1R Ki, (nM) (SEM, n)
Chain of human GLP-1R (P43220 24-463): as above
Outline: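 Membranes: hypotonic lysis (50 mM Tris HCl, pH 7.5, protease inhibitors), Potter-Elvehjem homogenization, high-speed pellet (35000×g 1 h or 25000×g 30 min, 4° C.). Buffer: 25 mM HEPES pH 7.4, 2.5 mM CaCl2, 1 mM MgCl2. Four-parameter IC50 fit; Ki as geometric mean ± SEM.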

Structure (SMILES)	Ki (human Gcg receptor)	Ki (human GIP receptor)	EC50 [1]	EC50 [2]	Ki (human GLP-1R)
CC[C@H](C)[C@H](NC(=O)[C@H](CCCCN)NC(=O)[C@H](CC(=O)O)NC(=O)[C@H](CC(C)C)NC(=O)[C@H](CC(C)C)NC(=O)[C@H](CCCCNC(=O)COCCOCCNC(=O)COCCOCCNC(=O)CC[C@H](NC(=O)CCCCCCCCCCCCCCCCCCC(=O)O)C(=O)O)NC(=O)[C@H](CO)NC(=O)[C@H](Cc1ccc(O)cc1)NC(=O)[C@H](CC(=O)O)NC(=O)[C@H](CO)NC(=O)[C@@H](NC(=O)[C@H](Cc1ccccc1)NC(=O)[C@@H](NC(=O)CNC(=O)[C@H](CCC(=O)O)NC(=O)C(C)(C)NC(=O)[C@@H](N)Cc1ccc(O)cc1)[C@@H](C)O)[C@@H](C)O)C(=O)N[C@@H](C)C(=O)N[C@@H](CCC(N)=O)C(=O)NC(C)(C)C(=O)N[C@@H](C)C(=O)N[C@@H](Cc1ccccc1)C(=O)N[C@H](C(=O)N[C@@H](CCC(=O)O)C(=O)N[C@@H](Cc1ccc(O)cc1)C(=O)N[C@@H](CC(C)C)C(=O)N[C@H](C(=O)N[C@@H](CCC(=O)O)C(=O)NCC(=O)NCC(=O)N1CCC[C@H]1C(=O)N[C@@H](CO)C(=O)N[C@@H](CO)C(=O)NCC(=O)N[C@@H](C)C(=O)N1CCC[C@H]1C(=O)N1CCC[C@H]1C(=O)N1CCC[C@H]1C(=O)N[C@@H](CO)C(N)=O)[C@@H](C)CC)[C@@H](C)CC [Example 25] (H-Y[Aib]EGTFTSDYSK([AEEA-AEEA-γGlu-C20 diacid])LLDKIAQ[Aib]AFIEYLIEGGPSSGAPPPS-NH2)	81.1 nM	0.179 nM	0.356 nM	0.23 nM	4.8 nM
CC[C@H](C)[C@H](NC(=O)[C@H](Cc1ccccc1)NC(=O)[C@H](C)NC(=O)C(C)(C)NC(=O)[C@H](CCC(N)=O)NC(=O)[C@H](C)NC(=O)[C@H](CCCCNC(=O)COCCOCCNC(=O)COCCOCCNC(=O)CC[C@H](NC(=O)CCCCCCCCCCCCCCCCCCC(=O)O)C(=O)O)NC(=O)[C@H](CCC(=O)O)NC(=O)[C@H](CC(=O)O)NC(=O)[C@H](CC(C)C)NC(=O)[C@](C)(CC(C)C)NC(=O)[C@@H](NC(=O)[C@H](CO)NC(=O)[C@H](Cc1ccc(O)cc1)NC(=O)[C@H](CC(=O)O)NC(=O)[C@H](CO)NC(=O)[C@@H](NC(=O)[C@H](Cc1ccccc1)NC(=O)[C@@H](NC(=O)CNC(=O)[C@H](CCC(=O)O)NC(=O)C(C)(C)NC(=O)[C@@H](N)Cc1ccc(O)cc1)[C@@H](C)O)[C@@H](C)O)[C@@H](C)CC)C(=O)N[C@@H](CCC(=O)O)C(=O)N[C@@H](Cc1ccc(O)cc1)C(=O)N[C@@H](CC(C)C)C(=O)N[C@@H](CC(C)C)C(=O)N[C@@H](CCC(=O)O)C(=O)NCC(=O)NCC(=O)N1CCC[C@H]1C(=O)N[C@@H](CO)C(=O)N[C@@H](CO)C(=O)NCC(=O)N[C@@H](C)C(=O)N1CCC[C@H]1C(=O)N1CCC[C@H]1C(=O)N1CCC[C@H]1C(=O)N[C@@H](CO)C(N)=O [Example 66] (H-Y[Aib]EGTFTSDYSI[αMeL]LDEK([AEEA-AEEA-γGlu-C20 diacid])AQ[Aib]AFIEYLLEGGPSSGAPPPS-NH2)	93.7 nM	0.106 nM	0.285 nM	0.0743 nM	7.53 nM
